pIC50: −log10 of the molar value. Activity calls are given as the source filed them. No cut-off for these calls is given here.
How the values were obtained:
Assay type in all cases: cell-based
HEK293 = assay: (§1) Inhibition of NF-kappaB activity in TNF-alpha-induced human HEK293 cells by luciferase assay; conditions: dose or concentration not given here
[1] = biological target: NAD(P)H dehydrogenase [quinone] 1 (Mus musculus) (UniProt Q64669); assay: Induction of NADPH-dependent quinone reductase activity in mouse Hepa-1c1c7 cells at 28.4 uM after 48 hrs by MTT assay
Sequence of NAD(P)H dehydrogenase [quinone] 1 (Mus musculus) (Q64669 whole entry): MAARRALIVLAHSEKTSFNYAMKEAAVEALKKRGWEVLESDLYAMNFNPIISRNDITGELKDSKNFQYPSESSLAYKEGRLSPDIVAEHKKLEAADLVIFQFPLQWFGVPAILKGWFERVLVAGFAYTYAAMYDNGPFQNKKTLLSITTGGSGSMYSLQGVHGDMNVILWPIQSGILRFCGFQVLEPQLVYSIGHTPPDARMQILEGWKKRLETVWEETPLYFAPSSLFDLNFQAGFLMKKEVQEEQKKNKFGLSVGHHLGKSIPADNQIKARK

[2] = biological target: NAD(P)H dehydrogenase [quinone] 1 (Mus musculus) (UniProt Q64669); assay: Induction of NADPH-dependent quinone reductase activity in mouse Hepa-1c1c7 cells assessed as concentration to double activity after 48 hrs by MTT assay
[3] = as §1
[4] = biological target: NAD(P)H dehydrogenase [quinone] 1 (Mus musculus) (UniProt Q64669); assay: Induction of NADPH-dependent quinone reductase activity in mouse Hepa-1c1c7 cells assessed as induction ratio at 28.4 uM after 48 hrs by MTT assay relative to DMSO control

Structure (SMILES) | inhibition (HEK293) | Activity [1] | CD [2] | pIC50 [3] | Ratio [4]
CN(C)[C@H]1[C@@H](O)[C@@H](O)[C@H](O[C@]23C=CC=C2c2c4ccc(c2Cl)[C@@H](O)COC(=O)C[C@H](N)c2cc(O)c(c(Cl)c2)O[C@H]43)OC1(C)C | 46.5% | inactive |  |  | 
O=c1cc(-c2ccc(Br)cc2)oc2ccccc12 |  |  | 0.013 µM |  | 
CC(=O)N[C@H]1CC(=O)OC[C@H](O)c2ccc3c(c2Cl)C2=CC=C[C@]2(O[C@@H]2OC(C)(C)[C@@H](N(C)C)[C@@H](O)[C@H]2O)[C@@H]3Oc2c(O)cc1cc2Cl [FIJIOLIDE A] | 70.3% |  | 1.8 µM | 6.24 | 3.5

— ChEMBL document CHEMBL1165961, “Fijiolides A and B, inhibitors of TNF-alpha-induced NFkappaB activation, from a marine-derived sediment bacterium of the genus Nocardiopsis” (J Nat Prod, 2010)
